Source: patent publication US20040002441A1, “Recombination modulators and methods for producing and using the same” (priority 2000, published 2004)
“And” between values parts separate entries of the source, which are not always exact repeats. Equal values may be shown once. “Also recorded” adds a separate entry of the source. Where no end group is shown, it is not given here.

Columns and labels:
[1] = target: T1, E. coli topoisomerase I (type Ia) (Escherichia coli, UniProt P06612); assay: biochemical; conditions: for IC50: IC50, DNA relaxation (activity reduced by one-half), supercoiled DNA
T1 sequence (P06612 1-865): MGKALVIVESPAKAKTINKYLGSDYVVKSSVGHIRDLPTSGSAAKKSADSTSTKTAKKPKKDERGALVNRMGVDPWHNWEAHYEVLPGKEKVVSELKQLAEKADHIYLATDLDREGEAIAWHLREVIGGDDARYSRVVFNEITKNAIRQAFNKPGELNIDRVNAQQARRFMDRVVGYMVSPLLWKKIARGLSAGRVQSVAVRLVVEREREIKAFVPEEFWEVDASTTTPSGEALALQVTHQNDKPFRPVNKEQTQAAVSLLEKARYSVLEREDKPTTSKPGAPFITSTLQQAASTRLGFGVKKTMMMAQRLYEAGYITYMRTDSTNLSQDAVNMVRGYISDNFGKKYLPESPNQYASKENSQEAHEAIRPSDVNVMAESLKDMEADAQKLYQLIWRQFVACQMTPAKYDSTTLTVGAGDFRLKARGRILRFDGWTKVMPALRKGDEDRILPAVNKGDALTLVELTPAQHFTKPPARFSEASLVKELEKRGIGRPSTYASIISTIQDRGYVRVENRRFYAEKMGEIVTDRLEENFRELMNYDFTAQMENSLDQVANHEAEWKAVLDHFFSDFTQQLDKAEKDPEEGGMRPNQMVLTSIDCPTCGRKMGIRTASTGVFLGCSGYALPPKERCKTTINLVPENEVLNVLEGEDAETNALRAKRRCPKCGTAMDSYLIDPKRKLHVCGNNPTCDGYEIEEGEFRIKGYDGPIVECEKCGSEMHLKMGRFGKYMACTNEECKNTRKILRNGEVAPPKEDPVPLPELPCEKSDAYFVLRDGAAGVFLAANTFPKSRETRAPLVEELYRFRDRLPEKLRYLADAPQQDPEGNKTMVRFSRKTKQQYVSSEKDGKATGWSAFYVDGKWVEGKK
From the text: E. coli topoisomerase I (TopA) exemplifies the type IA topoisomerase family. Type IA enzymes are mechanistically and structurally unrelated to the topoisomerase IB/tyrosine recombinase superfamily of DNA strand transferases.

[2] = target: T2, bacteriophage λ Integrase (Int) (Escherichia phage lambda, UniProt P03700); assay: Int-mediated bent-L recombination; assay type: biochemical; conditions: for rank of potency at inhibiting recombination among individual peptides: FIG. 6A
T2 sequence (P03700 1-356): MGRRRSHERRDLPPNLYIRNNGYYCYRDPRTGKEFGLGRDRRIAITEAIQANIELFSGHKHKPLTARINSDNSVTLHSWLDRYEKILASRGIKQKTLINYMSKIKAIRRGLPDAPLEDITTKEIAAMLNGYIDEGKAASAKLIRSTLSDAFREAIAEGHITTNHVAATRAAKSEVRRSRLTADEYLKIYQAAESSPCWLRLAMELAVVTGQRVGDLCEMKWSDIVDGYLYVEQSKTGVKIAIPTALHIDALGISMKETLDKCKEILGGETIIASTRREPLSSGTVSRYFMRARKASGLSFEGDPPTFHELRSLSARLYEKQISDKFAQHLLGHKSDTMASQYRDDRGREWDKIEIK
T2 sequence (P0A6X7 1-99 partner): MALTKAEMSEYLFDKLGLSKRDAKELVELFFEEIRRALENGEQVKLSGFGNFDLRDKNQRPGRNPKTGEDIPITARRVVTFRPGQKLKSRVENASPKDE
T2 sequence (P0A6Y1 1-94 partner): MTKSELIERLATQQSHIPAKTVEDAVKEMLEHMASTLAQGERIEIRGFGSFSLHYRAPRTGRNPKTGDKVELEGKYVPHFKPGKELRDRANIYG
Procedure: Recombination Assays. Recombination assays were performed as described (Segall, 1998). Briefly, reactions were performed in a total volume of 10 μl and typically contained 1 nM radiolabeled att site as specified, 4 nM unlabeled att site, 50 ng salmon sperm DNA as nonspecific competitor, 44 mM Tris-Cl (pH 8.0), 60 mM KCl, 0.05 mg/ml bovine serum albumin, 7-11 mM Tris borate (pH 8.9), 5 mM spermidine, 1.3 mM EDTA, and 14.6% v/v glycerol. Int and IHF were present at 55 nM and 35 nM final concentrations respectively. During screening, peptide libraries were incubated with Int on ice for 20 minutes (in the same buffer), and the mix was then added to the rest of the recombination reaction. Final concentrations of peptides are specified for each experiment. Reactions were incubated for 60-90 minutes at 30° C. or 37° C., were stopped with 0.2× volume of 2% SDS, layered onto 5% polyacrylamide Tris/SDS gels, and electrophoresed in 1× Tris Tricine SDS buffer at 100 mA (Segall, 1998). Dried gels were visualized and quantitated using a Molecular Dynamics PhosphorImager.
Int Assays. Site-specific recombination and gel mobility shift assays were performed as described (Segall, 1998). Briefly, reactions were performed in a total volume of 10 or 20 μl and typically contained 1-2 nM radiolabeled att site as specified, 4 nM unlabeled att site, 100-300 ng salmon sperm DNA as nonspecific competitor, 44 mM Tris-Ci (pH 8.0), 60 mM KCl, 0.05 mg/ml bovine serum albumin, 7 mM Tris borate (pH 8.9), 5 mM spermidine, 1.3 mM EDTA, and 14.6% v/v glycerol. Any deviation from this formulation is noted in the figure legends. Gel shift reactions were incubated for 90 minutes at 37° C., layered without loading dyes onto 5% native polyacrylamide gel (29 acrylamide: 1 bis-acrylamide) and electrophoresed in 0.5× Tris borate EDTA buffer. Recombination reactions were stopped with 0.2× volume of 2% SDS, layered onto 5% polyacrylamide Tris/SDS gels, and electrophoresed in 1× Tris Tricine SDS buffer at 100 mA (Segall, 1998). Dried gels were visualized and quantitated using a Molecular Dynamics PhosphorImager. […]

[3] = IC50, inhibition of bent-L recombination, bent-L pathway

Substance | IC50 [1] [µM] | IC50 [2, 3] | rank of potency at inhibiting recombination among individual peptides ([2]; dose response curves) | effect on recombination ([2]; 1 μM peptide) | effect on recombination ([2]; 10 μM peptide) | effect on DNA relaxation ([1]; peptide concentrations up to 42 μM) | EC50 [2] [µM] | effect on recombination ([2]; 100 μM, the highest peptide concentration tested) | IC50 ([2]; IC50, accumulation of Holliday junctions, bent-L pathway) [µM] | peptide concentration at which the most HJs accumulate ([2]; bent-L pathway) | rank of potency at causing the accumulation of HJs among individual peptides ([2]; dose response curves, FIG. 6B)
KWWWRW-NH2 [Peptide 56, KWWWRW] | 7 to 10 | ~0.04 µM | most potent at inhibiting recombination | – | – | – | – | – | – | – | –
KWWCRW-NH2 [Peptide 59, KWWCRW] | 8 | < 0.1 µM and 0.02 µM | most potent at inhibiting recombination | almost complete block on recombination | inhibited completely | – | – | – | – | – | –
WKHYNY-NH2 [Peptide 52, WKHYNY] | – | – | – | – | – | no effect | 0.2 to 0.4 | does not inhibit it completely; also recorded: does not inhibit recombination completely | 0.2 | about 2 μM | most potent at causing the accumulation of HJs
